Read-outs that look alike come from different tables or passages of the source. Positions of bridges follow the written chain, without caps; N, C: chain ends. Residues, ends and D or L forms follow the SMILES beside them.
Assays:
[1] = target: T1, porcine Aminopeptidase N (APN) (Sus scrofa, UniProt P15145); assay: porcine Aminopeptidase N inhibition, spectrophotometric; format: biochemical
T1 construct: aminopeptidase from porcine kidney (pAPN, Sigma Aldrich); purchased Sigma Aldrich; host or cells: porcine kidney (microsomal preparation)
T1 sequence (P15145 1-963): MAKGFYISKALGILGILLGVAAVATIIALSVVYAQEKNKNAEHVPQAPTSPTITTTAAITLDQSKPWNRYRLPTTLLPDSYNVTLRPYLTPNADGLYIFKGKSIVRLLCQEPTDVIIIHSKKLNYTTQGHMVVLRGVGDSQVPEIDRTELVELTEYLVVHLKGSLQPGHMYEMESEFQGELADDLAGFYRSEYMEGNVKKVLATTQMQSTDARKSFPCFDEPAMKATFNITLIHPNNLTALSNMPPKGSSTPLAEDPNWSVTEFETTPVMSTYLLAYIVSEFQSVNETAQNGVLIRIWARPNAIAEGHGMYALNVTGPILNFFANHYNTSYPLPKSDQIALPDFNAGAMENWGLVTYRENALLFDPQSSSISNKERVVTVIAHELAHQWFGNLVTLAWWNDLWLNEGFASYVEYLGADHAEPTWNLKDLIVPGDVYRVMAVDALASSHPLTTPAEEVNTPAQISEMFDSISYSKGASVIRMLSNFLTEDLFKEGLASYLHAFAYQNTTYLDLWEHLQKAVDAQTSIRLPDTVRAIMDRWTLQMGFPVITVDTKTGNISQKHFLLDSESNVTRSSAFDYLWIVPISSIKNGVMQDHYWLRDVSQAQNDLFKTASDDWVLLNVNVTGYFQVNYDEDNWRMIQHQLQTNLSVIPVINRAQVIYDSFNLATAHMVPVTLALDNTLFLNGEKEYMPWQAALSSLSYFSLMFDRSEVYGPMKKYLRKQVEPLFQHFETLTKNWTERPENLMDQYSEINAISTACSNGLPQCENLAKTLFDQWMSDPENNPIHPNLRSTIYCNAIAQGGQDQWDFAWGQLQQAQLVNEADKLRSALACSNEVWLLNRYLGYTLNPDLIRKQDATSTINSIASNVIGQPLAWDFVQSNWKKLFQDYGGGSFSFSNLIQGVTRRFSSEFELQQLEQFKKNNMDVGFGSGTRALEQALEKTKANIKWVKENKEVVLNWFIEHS
Description: Studies to explore the impact of oxetane modification on the bioactivity of the derived cyclic peptides were undertaken. cCNGRC (26) is known to target Aminopeptidase N (APN), a transmembrane zinc-dependent metalloprotease involved in a variety of processes, including blood pressure regulation, cell migration, viral uptake, cell survival, and angiogenesis.[18],[19] Both oxetane modified derivative 22 and cCNGRC (26) were examined for their inhibitory activity towards porcine APN using a spectrophotometric assay (Table 2).[19]
4. In vitro inhibition assay of aminopeptidase N with oxetane modified peptide 22 and parent
Peptide 26 was synthesised following a procedure by Piras et al.[10] using HCTU as coupling reagent and NMM as base. Oxidation was performed by on-resin cyclization as described for the biotin labelled […]
For the determination of IC50 values of oxetane modified peptide 22 and parent peptide 26, a protocol published by Piras et al.[10] was followed using L-leucine-p-nitroanilide as substrate and microsomal aminopeptidase from porcine kidney (pAPN, Sigma Aldrich) (18 units/mg protein). IC50 values were calculated by following the formation of p-nitroaniline. Formation of p-nitroaniline was monitored by measurement of the UV absorption at 405 nm on a Hidex Sense plate reader. […]

[2] = stability of oxetane to side-chain deprotection with TFA; format: physicochemical; settings: 70% TFA/20% CH2Cl2/10% TIS, 2.5 h (global side-chain deprotection including Arg Pbf)
Description: Macrocyclisations not involving head-to-tail ring closure have also been examined. Specifically, the formation of disulphide containing macrocycles through oxidative cyclisation of cysteine side chains has been explored (Scheme 5). Treatment of 2, whose synthesis was described in Scheme 3, with iodine provided the 17-membered macrocycle by way of trityl deprotection and disulphide bond formation. Further reaction with TFA in the presence of the cation scavenger triisopropylsilane (TIS) facilitated removal of all the side chain protecting groups providing 22 after reverse-phase HPLC purification. […] Smaller 11- and 14-membered macrocycles 23 and 24 were also conveniently produced in good yields using this methodology.
[formula] Scheme 5 Oxetane modified cyclic peptides by disulphide bond formation.^a^,^b^aReagents and conditions: (a) I2 (3.0 equiv.), MeOH, 1 h; (b) 70% TFA/20% CH2Cl2/10% TIS, 2.5 h. ^bBond formed in macrocyclisation indicated in red. ^cTFA step omitted; yield in parenthesis for the cyclisation of linear peptide with C?O rather than oxetane in backbone. ^dData taken from [ref. 14].
Fmoc-Cys(Trt)-Asn(Trt)-GOx-Arg(Pbf)-Cys(Trt)-OtBu (2)
Diethylamine (1.0 mL) was added to a solution of Fmoc-GOx-Arg(Pbf)-Cys(Trt)-OtBu (127) […]
and the reaction mixture was stirred at room temperature for 1 h. […]

SMILES | IC50 ([1]; read-out: IC50) | oxetane stability to acid [2] | IC50 [1]
N=C(N)NCCC[C@@H]1NC2(CNC(=O)[C@H](CC(N)=O)NC(=O)[C@@H](N)CSSC[C@@H](C(=O)O)NC1=O)COC2 [Compound 22, Cyclo(H-Cys-Asn-GOx-Arg-Cys-OH)] | 175 µM | survives the strongly acid conditions | –
N=C(N)NCCC[C@@H]1NC(=O)CNC(=O)[C@H](CC(N)=O)NC(=O)[C@@H](N)CSSC[C@@H](C(=O)O)NC1=O [cCNGRC (26), reference compound] (H-CNGRC-OH; disulfide 1-5) | – | – | 212 µM

From article PMC6385813, “Macrocyclisation of small peptides enabled by oxetane incorporation” (Chemical Science, 2019)
